Assay results as given in ChEMBL document CHEMBL1130645, “Synthesis and evaluation of artificial taxoids with antitumor and multi-drug resistance reversing activities” (1998).

Assays:
[1] = Compound was evaluated for vincristine accumulation in ovarian MDR cancer cells (2780AD) at a concentration of 1.0 ug/mL.; format: functional, Homo sapiens
[2] = Compound was evaluated for vincristine accumulation in ovarian MDR cancer cells (2780AD) at a concentration of 10 ug/mL.; format: functional, Homo sapiens
Homo sapiens = organism: Homo sapiens; assay: Compound was evaluated for inhibition of tumor cell growth using sulforhodamine-B assay in human BSY-1 cell.; format: functional
[3] = Compound was evaluated for inhibition of tumor cell growth using sulforhodamine-B assay in 38 human cell lines; format: functional
P388 = assay: Compound was evaluated for inhibition of tumor cell growth using sulforhodamine-B assay in mouse […] p338 cell line; format: functional

Row | GI50 (P388) | SMILES | Control [1] | Control [2] | GI50 (Homo sapiens) | GI50 [3]
1 | – | CC1=C2[C@@H](Sc3ccccc3)[C@H](OCCO)C3=C([C@H](OCc4ccccc4)[C@](O)(C[C@@H]1OC(=O)[C@H](O)[C@@H](NCc1ccccc1)c1ccccc1)C2(C)C)[C@@](C)(O)CCC3 | 151% | 217% | 9.5 µM | –
2 | 10 µM | CC(=O)O[C@@]1(C)CCCC2=C1[C@H](OCc1ccccc1)[C@]1(O)C[C@H](OC(=O)[C@H](O)[C@@H](NCc3ccccc3)c3ccccc3)C(C)=C([C@@H](Sc3ccccc3)[C@@H]2OCCO)C1(C)C | 80% | 102% | – | 10 µM
